According to patent US9198892B2, “Composition and/or method for preventing onset and/or recurrence of cardiovascular events” (MOCHIDA PHARMACEUTICAL CO., LTD., priority 2005, dated 2015):

Assays:
[1] = oral, cited from earlier work
[2] = two-year administration after PTCA; cited from earlier work
[3] = oral 600 mg three times a day immediately after meals (up to 900 mg when serum TG is abnormal); cited from earlier work
[4] = Serum lipid concentration in the five-year EPA-E trial; format: in vivo, human
Method: (§1) The observation was conducted by a large scale randomized unblinded controlled trial of the EPA-E group (9,326 cases) and the control group (9,319 cases). The patients were randomized into the groups at the beginning of the trial so that no significant difference is found between the groups in the background factors of the patients, namely, age, sex ratio, history and complication, type and proportion of the HMG-CoA RI, serum lipid concentration, and the like. The patients of both groups were under nutritional counseling, and HMG-CoA RI was administered to them as a base drug.
(§2) Epadel (Mochida Pharmaceutical Co., Ltd.) was orally administered as EPA-E typically at an adult dose of 600 mg after the meal three times a day. In the case of abnormal serum TG, however, the dose could be increased to 900 mg per administration and three times a day.
(§3) Pravastatin sodium (Mevalotin tablets and fine granules, Sankyo Co., Ltd.), simvastatin (Lipovas tablets, Banyu Pharmaceutical Co., Ltd.), or atorvastatin calcium hydrate (Lipitor tablets, Astellas Pharma Inc. and Pfizer) was used for the HMG-CoA RI, and these drugs were orally administered according to the predetermined dosage regimen.
For five years from before the start of the trial to the end of the trial, the concentration of the serum lipid (T-Cho, HDL-Cho, and TG) was periodically measured, and LDL-Cho was calculated by the equation of T-Cho-HDL-Cho-(TG/5). In addition, onset of cardiovascular events (cardiovascular death (fatal myocardial infarction and sudden cardiac death), nonfatal myocardial infarction, cardiovascular angioplasty, new onset of rest angina or effort angina, and destabilization of angina pectoris (hospitalization and cardiovascular angioplasty)) was observed.

[5] = Five-year large scale randomized unblinded controlled trial of EPA-E: onset of cardiovascular events; format: in vivo, human; settings: five years; for incidence rate of the cardiovascular events / Cases with the cardiovascular events/all cases: EPA-E group
Method: as §1
The data was collected from […] participant patients by about 4,900 participant physicians in about 2,900 participant facilities with sufficient case number, randomization, and the strictness required for the controlled trial. For example, in choosing the participant patients, the serum T-Cho concentration was measured twice at an interval of two to four weeks except for the cases where the patients underwent an adequate nutritional consulting with high compliance and the cases where the fasting blood was collected after cessation of the antilipidemic drug, in which the measurement was conducted only once. While untreated patients were preferable, in the case of patients who had been taking an antilipidemic drug for more than six months at the start of the trial, four weeks of drug holidays (eight weeks in the case of probucol) were given. Patients who were administered with the antilipidemic drug for six months or less at the start of the trial were admitted in the trial with no drug holiday, and when the drug was HMG-CoA RI, its administration was continued while other drugs were changed to HMG-CoA RI.
In order to exclude cardiovascular events in the unstable period after the onset of myocardial infarction and cardiovascular events such as restenosis in the unstable period which is conceived to be caused by the angioplasty itself, the patients at or within six months after the acute myocardial infarction and patients at or within six months after the cardiovascular angioplasty were excluded from the trial subjects, and only patients who are beyond six months after such events and who are conceived to be in the stable period were included in the trial. In addition, patients who are inadequate for the examination of the action of preventing the onset of cardiovascular events for a long time which is the object of this trial, for example, patients of unstable angina pectoris, patients with history or complication of serious heart diseases (such as severe arrhythmia, heart failure, cardiomyopathy, valvular disease, and congenital heart disease), patients at or within six months from the onset of cerebrovascular disorder, and patients with complication of serious liver disease or kidney disease, as well as the patients whose participation was judged to be inappropriate by the attending physician were excluded from the trial.
as §2, §3
For five years from before the start of the trial to the end of the trial, the concentration of the serum lipid (T-Cho, HDL-Cho, and TG) was periodically measured, and LDL-Cho was calculated by the equation of T-Cho-HDL-Cho-(TG/5). […]

[6] = EPA-E group with HMG-CoA RI, five years
[7] = Cardiovascular angioplasty history: No
[8] = Cardiovascular angioplasty history: Yes
[9] = Myocardial Infarction history: No
[10] = Myocardial Infarction history: Yes

Structure (SMILES): CC[C@H](C)C(=O)O[C@H]1C[C@H](O)C=C2C=C[C@H](C)[C@H](CC[C@@H](O)C[C@@H](O)CC(=O)O)[C@H]21 [pravastatin sodium]
- serum HDL-Cho concentration increased ([1]; average 4.9 years): 5%
- serum LDL-Cho concentration decreased ([1]; average 4.9 years): 26%
- serum TG decreased ([1]; average 4.9 years): 12%
- total incidence rate of nonfatal myocardial infarction and cardiovascular death decreased ([1]; average 4.9 years): 31%
- serum T-Cho concentration decreased ([1]; average period of 4.9 years, male hyperlipidemia patients with no history of myocardial infarction): 20%
- restenosis rate [2]: reduced the restenosis rate

Structure (SMILES): CC/C=C\C/C=C\C/C=C\C/C=C\C/C=C\CCCC(=O)OCC [EPA-E, ethyl icosapentate]
- serum T-Cho concentration reduced [3]: 3-6%
- serum HDL-Cho concentration [4, 6]: no significant change
- serum TG concentration [4, 6]: decreased
- serum LDL-Cho concentration ([4]; EPA-E group with HMG-CoA RI, five years, LDL-Cho calculated): decreased
- serum T-Cho concentration ([4]; EPA-E group with HMG-CoA RI, observation period of five years): decreased
- decrease in the serum TG concentration, EPA-E group versus control group ([4]; five years): more significant
- Odds ratio (incidence rate of the EPA-E group)/(incidence rate of the control group) ([5]; All Cases): 0.808
- Odds ratio (EPA-E group/control group) [5, 7]: 0.862
- Odds ratio (EPA-E group/control group) [5, 8]: 0.671
- incidence rate of the cardiovascular events [5, 7]: (2.10) %
- Cases with the cardiovascular events/all cases [5, 8]: 77/533
- incidence rate of the cardiovascular events [5, 8]: (14.45) %
- incidence rate of the cardiovascular events [5, 9]: (2.05) %
- Cases with the cardiovascular events/all cases [5, 10]: 82/548
- incidence rate of the cardiovascular events [5, 10]: (14.96) %
- Odds ratio (EPA-E group/control group) [5, 9]: 0.811
- Odds ratio (EPA-E group/control group) [5, 10]: 0.744
- reduction of the incidence rate of the cardiovascular events compared to the control group ([5]; all cases): about 19%
- decrease of the incidence rate of the cardiovascular events compared to the control group ([5]; patients with history of cardiovascular angioplasty): about 33%
- decrease of the incidence rate of the cardiovascular events compared to the control group ([5]; patients with history of myocardial infarction): about 26%
